Results: ChEMBL document CHEMBL4431321, “Profiling of Flavonol Derivatives for the Development of Antitrypanosomatidic Drugs” (J Med Chem, 2016)
Active and inactive are the calls of the source. The calls are words filed in the database; no cut-off is given here.

Assays:
[1] = test system: Trypanosoma brucei brucei; assay: Antitrypanosomal activity against Trypanosoma brucei brucei Lister 427 bloodstream forms after 72 hrs by resazurin-based assay; type: functional, organism-based; conditions: Lister 427, 72 h
[2] = test system: 786-0; assay: Mitochondrial toxicity in human 786-O cells incubated for 6 hrs by mitotracker red staining based-uptake method; type: cell-based; conditions: 786-0, 6 h
[3] = test system: A549; assay: Cytotoxicity against human A549 cells at 100 uM after 48 hrs by cell titer glo assay; type: cell-based; conditions: a549, 48 h
[4] = test system: WI-38; assay: Cytotoxicity against human WI38 cells at 100 uM after 48 hrs by cell titer glo assay; type: cell-based; conditions: wi-38, 48 h
[5] = test system: Trypanosoma brucei brucei; assay: Antitrypanosomal activity against Trypanosoma brucei brucei Lister 427 bloodstream forms at 10 uM after 72 hrs by resazurin-based assay; type: functional, organism-based
[6] = Cytotoxicity against human THP1 cells after 72 hrs by MTT assay; type: cell-based; conditions: THP-1 cells; for MNTC at 72 h: read-out: NOAEL
[7] = test system: Trypanosoma brucei brucei; assay: Antitrypanosomal activity against Trypanosoma brucei brucei Lister 427 bloodstream forms assessed as synergy coefficient at 1.25 to 5 uM after 72 hrs in presence of MTX by resazurin-based assay; type: functional
[8] = target: T1, Cytochrome P450 1A2 (Homo sapiens, UniProt P05177); assay: Inhibition of human microsomal CYP1A2 expressed in baculovirus infected BTI-TN-5B1-4 cells at 10 uM incubated for 30 mins by luciferase assay; type: ADME; conditions: bti-tn-5b1-4, 0.5 h, 10 µM
T1 sequence (P05177 whole entry): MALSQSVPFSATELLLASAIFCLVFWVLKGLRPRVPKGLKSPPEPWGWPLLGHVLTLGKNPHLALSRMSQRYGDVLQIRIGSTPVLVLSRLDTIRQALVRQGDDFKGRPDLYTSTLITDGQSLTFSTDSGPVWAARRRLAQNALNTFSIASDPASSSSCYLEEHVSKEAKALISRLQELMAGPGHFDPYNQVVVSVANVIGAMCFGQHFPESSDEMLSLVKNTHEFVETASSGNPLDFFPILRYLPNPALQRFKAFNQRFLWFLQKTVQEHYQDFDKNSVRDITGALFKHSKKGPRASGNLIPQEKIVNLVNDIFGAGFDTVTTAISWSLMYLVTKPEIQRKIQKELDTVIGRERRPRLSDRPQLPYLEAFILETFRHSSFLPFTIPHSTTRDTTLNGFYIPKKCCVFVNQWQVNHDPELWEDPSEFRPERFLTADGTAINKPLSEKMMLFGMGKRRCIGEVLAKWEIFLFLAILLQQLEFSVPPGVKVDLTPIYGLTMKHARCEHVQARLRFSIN

[9] = in vitro; conditions: human, THP-1 cells
Description: Selectivity index, ratio of CC50 for human THP1 cells to EC50 for Trypanosoma brucei brucei Lister 427 bloodstream forms

[10] = test system: Trypanosoma brucei; assay: (§1) Inhibition of Trypanosoma brucei PTR1 using H2B as substrate incubated for 10 mins followed by addition of NADPH measured for 10 to 50 mins
[11] = as §1
[12] = test system: Trypanosoma brucei; assay: Inhibition of Trypanosoma brucei PTR1 at 50 uM using H2B as substrate incubated for 10 mins followed by addition of NADPH measured for 10 to 50 mins
[13] = test system: Leishmania mexicana; assay: Inhibition of Leishmania mexicana PTR1 at 50 uM using H2B as substrate incubated for 10 mins followed by addition of NADPH measured for 10 to 50 mins
[14] = test system: Leishmania mexicana; assay: Inhibition of Leishmania mexicana DHFR at 50 uM using folic aid as substrate by spectrophotometric analysis
[15] = test system: Trypanosoma brucei; assay: Inhibition of Trypanosoma brucei DHFR at 50 uM using folic aid as substrate by spectrophotometric analysis
[16] = target: T2, Dihydrofolate reductase (Homo sapiens) (UniProt P00374); assay: Inhibition of human DHFR at 50 uM using folic aid as substrate by spectrophotometric analysis
T2 sequence (whole entry): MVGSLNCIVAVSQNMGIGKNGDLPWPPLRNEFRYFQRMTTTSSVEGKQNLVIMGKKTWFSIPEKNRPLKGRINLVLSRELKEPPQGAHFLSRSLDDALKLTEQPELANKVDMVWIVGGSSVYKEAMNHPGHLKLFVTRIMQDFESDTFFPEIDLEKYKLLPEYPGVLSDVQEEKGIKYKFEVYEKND

[17] = target: Thymidylate synthase (Homo sapiens) (UniProt P04818); assay: Inhibition of human thymidylate synthase at 50 uM using folic aid as substrate by spectrophotometric analysis
Chain of Thymidylate synthase (Homo sapiens) (P04818 2-313 limits assumed): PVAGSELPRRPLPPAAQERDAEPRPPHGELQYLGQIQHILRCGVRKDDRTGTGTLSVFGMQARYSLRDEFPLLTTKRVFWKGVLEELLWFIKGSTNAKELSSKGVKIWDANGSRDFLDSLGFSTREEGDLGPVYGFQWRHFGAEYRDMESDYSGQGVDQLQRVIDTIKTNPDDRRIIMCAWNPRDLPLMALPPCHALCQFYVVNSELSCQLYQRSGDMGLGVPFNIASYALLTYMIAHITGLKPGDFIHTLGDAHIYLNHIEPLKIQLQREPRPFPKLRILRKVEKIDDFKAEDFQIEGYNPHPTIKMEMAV

Q: For `COc1cccc(/C=C/C(=O)O)c1`, which IC50 [1] is on record?
A: Its IC50 is < 30 µM.

Q: With `O=C(O)c1cc(O)c(O)c(O)c1` [GALLIC ACID] as the compound, how does the IC50 [1] read?
A: The IC50 was < 30 µM.

Q: With `C[C@H]1O[C@@H](O[C@@H]2[C@H](Oc3cc(O)c4c(c3)OC(c3ccc(O)cc3)CC4=O)O[C@@H](CO)[C@H](O)[C@H]2O)[C@@H](O)[C@@H](O)[C@@H]1O` (stereo partly specified) as the compound, how does the IC50 [1] read?
A: Its IC50 is < 30 µM.

Q: Which results are given for `COc1ccc2oc(-c3ccc(OC)c(OC)c3)c(O)c(=O)c2c1`?
A: Activity [2]: Non-Toxic; Activity [3]: Non-Toxic; Activity [4]: Non-Toxic; Activity [5]: Active; MNTC at 72 h [6]: 10 µM; CI [7]: >1; inhibition (INH) [8]: Not Active; selectivity ratio [9]: 5

Q: Which IC50 [1] does the source give for `O=C1c2c(O)cccc2C(C2OC(CO)C(O)C(O)C2O)c2cc(CO)cc(O)c21` (stereo unspecified) here?
A: Its IC50 is < 30 µM.

Q: With `COc1ccc(/C=C/C(=O)O)cc1O` [ISOFERULIC ACID] as the compound, how does the IC50 [1] read?
A: Its IC50 is < 30 µM.

Q: For `O=c1c(O)c(-c2ccc(O)c(O)c2)oc2cc(O)cc(O)c12`, which inhibition [10] is on record?
A: Its inhibition is “inactive”.

Q: What about the IC50 [1] of the same compound?
A: Its IC50 is < 30 µM.

Q: With `O=c1c(O)c(-c2ccccc2O)oc2cc(O)cc(O)c12` [DATISCETIN] as the compound, how does the IC50 [11] read?
A: Its IC50 is 76.9 µM.

Q: And the IC50 [1]?
A: The IC50 was 27 µM.

Q: Which results are given for `O=c1c(O)c(-c2ccccc2)oc2ccccc12` [FLAVONOL]?
A: IC50 [11]: 12.8 µM; IC50 [1]: 9.1 µM

Q: Which inhibition [12] does the source give for `COc1cccc(-c2oc3ccc(OC)cc3c(=O)c2O)c1` here?
A: The inhibition was 4%.

Q: And the inhibition [13]?
A: The inhibition was “inactive”.

Q: What about the Activity [2] of the same compound?
A: The Activity was “Non-Toxic”.

Q: And the Activity [3]?
A: Its Activity is “Non-Toxic”.

Q: What about the Activity [4] of the same compound?
A: Its Activity is “Non-Toxic”.

Q: And the Activity [5]?
A: Its Activity is “Active”.

Q: What about the MNTC at 72 h [6] of the same compound?
A: Its MNTC at 72 h is 10 µM.

Q: What about the CI [7] of the same compound?
A: The CI was >1.

Q: What about the “inhibition (INH)” value [8] of the same compound?
A: The value was “Not Active”.

Q: What about the selectivity ratio [9] of the same compound?
A: Its selectivity ratio is 7.

Q: With `Oc1cc(O)c2c(c1)O[C@H](c1ccc(O)c(O)c1)[C@H](O)C2` [(-)-EPICATECHIN] as the compound, how does the IC50 [1] read?
A: Its IC50 is < 30 µM.

Q: With `O=c1c(O)c(-c2ccc(O)cc2)oc2ccc(O)cc12` as the compound, how does the EC50 [1] read?
A: The EC50 was 2.32 µM.

Q: And the inhibition [12]?
A: Its inhibition is 3%.

Q: What about the inhibition [14] of the same compound?
A: Its inhibition is < 25%.

Q: What about the inhibition [15] of the same compound?
A: Its inhibition is < 25%.

Q: What about the inhibition [16] of the same compound?
A: Its inhibition is < 30%.

Q: And the inhibition [17]?
A: The inhibition was “inactive”.

Q: What about the Activity [2] of the same compound?
A: Its Activity is “Non-Toxic”.

Q: And the Activity [3]?
A: The Activity was “Non-Toxic”.

Q: And the Activity [4]?
A: The Activity was “Non-Toxic”.

Q: What about the Activity [5] of the same compound?
A: The Activity was “Active”.

Q: And the MNTC at 72 h [6]?
A: Its MNTC at 72 h is 20 µM.

Q: And the CI [7]?
A: Its CI is >1.5.

Q: What about the “inhibition (INH)” value [8] of the same compound?
A: The value was “Not Active”.

Q: And the selectivity ratio [9]?
A: The selectivity ratio was 7.

Q: For `COc1cc(/C=C/C(=O)O)ccc1O` [FERULATE], which IC50 [1] is on record?
A: Its IC50 is < 30 µM.

Q: With `O=c1c(O)c(-c2cccc(O)c2)oc2ccccc12` as the compound, how does the EC50 [1] read?
A: Its EC50 is 5.18 µM.

Q: What about the inhibition [12] of the same compound?
A: Its inhibition is 35%.

Q: And the inhibition [13]?
A: The inhibition was 35%.

Q: And the inhibition [14]?
A: The inhibition was 42 to 43%.

Q: And the inhibition [15]?
A: Its inhibition is 42 to 43%.

Q: What about the inhibition [16] of the same compound?
A: The inhibition was < 30%.

Q: What about the inhibition [17] of the same compound?
A: Its inhibition is “inactive”.

Q: What about the Activity [2] of the same compound?
A: Its Activity is “Non-Toxic”.

Q: What about the Activity [3] of the same compound?
A: Its Activity is “Non-Toxic”.

Q: What about the Activity [4] of the same compound?
A: The Activity was “Non-Toxic”.

Q: What about the Activity [5] of the same compound?
A: Its Activity is “Active”.

Q: What about the MNTC at 72 h [6] of the same compound?
A: Its MNTC at 72 h is 20 µM.

Q: What about the “inhibition (INH)” value [8] of the same compound?
A: Its value is “Not Active”.

Q: And the selectivity ratio [9]?
A: Its selectivity ratio is 4.

Q: With `O=c1c(O)c(-c2cccc(O)c2)oc2cc(O)ccc12` as the compound, how does the EC50 [1] read?
A: The EC50 was 12.3 µM.

Q: What about the inhibition [12] of the same compound?
A: The inhibition was 47%.

Q: What about the inhibition [14] of the same compound?
A: The inhibition was < 25%.

Q: What about the inhibition [15] of the same compound?
A: Its inhibition is < 25%.

Q: And the inhibition [16]?
A: Its inhibition is < 30%.

Q: And the inhibition [17]?
A: The inhibition was “inactive”.

Q: What about the Activity [2] of the same compound?
A: The Activity was “Non-Toxic”.

Q: And the Activity [3]?
A: Its Activity is “Non-Toxic”.

Q: And the Activity [4]?
A: Its Activity is “Non-Toxic”.

Q: What about the Activity [5] of the same compound?
A: Its Activity is “Active”.

Q: What about the CC50 at 72 h [6] of the same compound?
A: Its CC50 at 72 h is 80 µM.

Q: What about the CI [7] of the same compound?
A: Its CI is >1.

Q: And the “inhibition (INH)” value [8]?
A: The value was “Not Active”.

Q: And the selectivity ratio [9]?
A: Its selectivity ratio is 6.

Q: With `Oc1cc(O)c2c(c1)O[C@H](c1ccc(O)c(O)c1)[C@@H](O)C2` [CIANIDANOL] as the compound, how does the IC50 [1] read?
A: The IC50 was < 30 µM.

Q: For `COc1ccc([C@@H]2CC(=O)c3c(O)cc(O)cc3O2)cc1O` [HESPERETIN], which IC50 [1] is on record?
A: The IC50 was < 30 µM.

Q: For `COc1ccc([C@H]2CC(=O)c3c(O)cc(O[C@@H]4O[C@H](CO)[C@@H](O)[C@H](O)[C@H]4O[C@@H]4O[C@@H](C)[C@H](O)[C@@H](O)[C@H]4O)cc3O2)cc1O`, which IC50 [1] is on record?
A: The IC50 was < 30 µM.

Q: Which Activity [2] does the source give for `COc1cccc(-c2oc3cc(OC)ccc3c(=O)c2O)c1` here?
A: Its Activity is “Non-Toxic”.

Q: And the Activity [3]?
A: The Activity was “Non-Toxic”.

Q: What about the Activity [4] of the same compound?
A: Its Activity is “Non-Toxic”.

Q: And the Activity [5]?
A: Its Activity is “Active”.

Q: And the MNTC at 72 h [6]?
A: The MNTC at 72 h was 10 µM.

Q: And the “inhibition (INH)” value [8]?
A: Its value is “Not Active”.

Q: And the selectivity ratio [9]?
A: The selectivity ratio was 8.

Q: Which IC50 [1] does the source give for `O=c1cc(-c2ccc(O)c(O)c2)oc2cc(O)cc(O)c12` [LUTEOLIN] here?
A: Its IC50 is < 30 µM.

Q: With `COc1cc(O)c2c(=O)cc(-c3ccccc3)oc2c1` [TECHTOCHRYSIN] as the compound, how does the IC50 [1] read?
A: Its IC50 is < 30 µM.

Q: With `O=C(O)/C=C/c1cccc(O)c1` as the compound, how does the IC50 [1] read?
A: Its IC50 is < 30 µM.
